Measurements taken from US8598145B2, “Mitochondrially delivered anti-cancer compounds” (priority 2008, dated 2013).

Key:
[1] = tested on: H9c2; experiment: MTT viability assay (IC50); assay type: cell-based, rat; settings: H9c2, ~60% confluency
From the text: (§1) The following cell lines used in this study were obtained from ATCC, unless specified otherwise: Human T lymphoma cells Jurkat, human mesothelioma cells Meso-I, MM-BI, Ist-Mes, Ist-Mes-2 (Pass, H. I. et al. Characteristics of nine newly derived mesothelioma cell lines. Ann. Thorac. Surg. 59, 835-844 (1995)), human breast cancer cells MCF-7 (erbB2-low) and MDA-MB-453 (erbB2-high), human colorectal cells HCT-116, human hepatocarcinoma cells Huh-7, mouse mesothelioma cells AE17 (Jackaman, C. et al. IL-2 intratumoral immunotherapy enhances CD8+ T cells that mediate destruction of tumor cells and tumor-associated vasculature: a novel mechanism for IL-2. J. Immunol. 171, […] (2003), human non-malignant mesothelial cells Met-5A, […] (Claycomb, W. C. et al. HL-1 cells: a cardiac muscle cell line that contracts and retains phenotypic characteristics of the adult cardiomyocyte. Proc. Natl. Acad. Sci. USA 95, 2979-2984 […]) and H9c2, and the human endothelial-like cells EAhy926 (Edgell, C. J., McDonald, C. C. & Graham, J. B. Permanent cell line expressing human factor VIII-related antigen established by hybridization. Proc. Natl. Acad. Sci. USA 80, 3734-3737 (1983)). Jurkat cells were grown in the RPMI medium while DMEM was used for other malignant cell lines and for Met-5A cells, supplemented with 10% FCS and antibiotics. HL-1 cells, maintained in fibronectin/gelatine-coated dishes, were grown in the Claycomb medium supplemented with noradrenalin (Claycomb, W. C. et al. HL-1 cells: a cardiac muscle cell line that contracts and retains phenotypic characteristics of the adult cardiomyocyte. Proc. Natl. Acad. Sci. USA 95, 2979-2984 […]), EAhy926 cells were grown in complete DMEM supplemented with HAT (Edgell, C. J., McDonald, C. C. & Graham, J. B. Permanent cell line expressing human factor VIII-related antigen established by hybridization. Proc. Natl. Acad. Sci. USA 80, 3734-3737 (1983)). Cells deficient in mtDNA (ρ^0 phenotype) were prepared as detailed in Weber, T. et al., (Mitochondria play a central role in apoptosis induced by α-tocopheryl succinate, an agent with anticancer activity. Comparison with receptor-mediated pro-apoptotic signaling. Biochemistry 42, 4277-4291 (2003)). Acquisition of the ρ^0 phenotype was confirmed by lack of expression by the cells of the mtDNA-encoded cytochrome c oxidase subunit II (COXII not shown). Chinese hamster lung fibroblasts deficient in complex I (B10 cells) (See, B. B. et al. Molecular remedy of complex I defects: rotenone-insensitive internal NADH-quinone oxidoreductase of Saccharomyces cerevisiae mitochondria restores the NADH oxidase activity of complex I-deficient mammalian cells. Proc. Natl. Acad. Sci. USA 95, 9167-9171 (1998)) and complex II (CybL^−/−; B9 cells) (Oostveen, F. G., Au, H. C., Meijer, P. J. & Scheffler, I. E. A Chinese hamster mutant cell line with a defect in the integral membrane protein CII-3 of complex II of the mitochondrial electron transport chain. J. Biol. Chem. 270: 26104-26108 (1995)) as well as the parental cells (B1 cells) (Oostveen, F. G., Au, H. C., Meijer, P. J. & Scheffler, I. E. A Chinese hamster mutant cell line with a defect in the integral membrane protein CII-3 of complex II of the mitochondrial electron transport chain. J. Biol. Chem. 270: 26104-26108 (1995)) were grown in DMEM with 10% FCS, antibiotics, 10 mg/ml glucose and non-essential aminoacids.
(§2) Toxicity of α-TOS, VE11S (“VES”), MitoVE3S, MitoVE5S, MitoVE7S, MitoVE9S, MitoVE11S (“MitoVES”), MitoVE11AE (“MitoVEAE”), MitoVE11F (“MitoVEF”), MitoVE11M (“MitoVEM”), and VES4TPP towards cancer cells was assessed on the basis of IC50, as detailed in Turanek, J., et al. ((2008). Liposomal formulation of vitamin E analogs as an efficient and selective anti-cancer treatment. Clin. Cancer Res. (submitted)). […]

[2] = tested on: HL-1; experiment: MTT viability assay (IC50); assay type: cell-based, rat; settings: HL-1, ~60% confluency
From the text: as §1, §2

[3] = tested on: MS cells derived from MCF7 cells; experiment: Drug induced cell death in mammosphere cells (FIG. 8); assay type: cell-based, human; settings: for sensitivity of MS cells to drug induced cell death: 5 μM MitoVES, 50 μM α-TOS or 10 μM parthenolide
Method: Adherent MCF7 cells and the corresponding mammosphere cells (MS) were cultured and assessed for morphological changes by microscopy (A) and for expression levels of markers as indicators of “sternness” by RT-PCR (B) and flow cytometry (C), including the expression of CD44 and CD24 (D). The adherent MCF7 cells (E) and the MS cells (F) were treated with 5 μM MitoVES, 50 μM α-TOS or 10 μM parthenolide and assessed for their sensitivity to drug induced cell death. […] Adherent MCF7 cells (I) and MS cells (J) were treated for 3 h with α-TOS (50 μM) or MitoVES homologues containing different lengths in the aliphatic side chain (5 μM each, either 11, 7 or 5 carbon chain in length) and the treated cells assessed for production of reactive oxygen species (ROS) by flow cytometry.

Compound	IC50 [1] [µM]	IC50 [2] [µM]	sensitivity of MS cells to drug induced cell death [3]	apoptosis of MS cells ([3]; within 5-6 h after adding the drug) [%]
Cc1c(C)c2c(c(C)c1OC(=O)CCC(=O)[O-])CCC(C)(CCCCCCCCCCC[P+](c1ccccc1)(c1ccccc1)c1ccccc1)O2 (stereo not shown) [MitoVE11S]	54 ± 8	48 ± 6	very sensitive	> 90
Cc1c(C)c2c(c(C)c1OC(=O)CCC(=O)O)CC[C@@](C)(CCC[C@H](C)CCC[C@H](C)CCCC(C)C)O2 [α-TOS, α-tocopheryl succinate, reference compound]	> 100	> 100	resistant	–
